Literature values as cited in patent US20250000898A1, “MAGNESIUM OXIDE-CONTAINING PHARMACEUTICAL COMPOSITION FOR TREATING PEDIATRIC CHRONIC FUNCTIONAL CONSTIPATION” (SETOLAS Holdings, Inc., priority 2021, published 2025).

Legend:
[1] = tested on: children under 15 years of age diagnosed with chronic constipation; conditions: for percentage of patients treated successfully for constipation (success rate for treatment of constipation): children under 15 years, median age 2 years 11 months, 3 weeks (magnesium oxide: 50 mg/kg per day, 20 of 49 cases; lactulose: 9 of 50 cases)
[2] = 50 mg/kg daily, 3 weeks

Compound	percentage of patients treated successfully for constipation (success rate for treatment of constipation) [1] [%]	average frequency of defecation ([1]; second and third weeks after administration, 50 mg/kg daily in two divided doses, 3 weeks)	average stool status score (Bristol Stool Scale) ([1]; second and third weeks after administration, 50 mg/kg daily, 3 weeks)	hypermagnesemia [2]
OC[C@H]1O[C@@H](O[C@@H]2[C@@H](CO)OC(O)(CO)[C@H]2O)[C@H](O)[C@@H](O)[C@H]1O (mixture of isomers) [lactulose]	18	–	–	–
[O]=[Mg] [magnesium oxide powder, magnesium oxide]	41	5.5±3.15	4.90±0.91	None of the patients exhibited hypermagnesemia
